Assay results reported in patent US20130225508A1, “PEPTIDE CAPABLE OF BINDING TO IMMUNOGLOBULIN” (priority 2010, published 2013).
Blank lines part the entries; values can stand above or below the molecule they belong to. No end group written: not given here.

Legend:
[1] = tested on: TNF-α in plasma; assay: TNF-α in plasma of adjuvant arthritis rats (ELISA); format: in vivo, rat; conditions: day 21 post-adjuvant; 10 mg/kg oral from day 10
Description: (§1) TNF-α and IL-1β in plasma were measured in a double-point method using the TNF-α ELISA kit (Lbis® TNF-α-rat) and the IL-1β ELISA kit (Quantikine® Rat IL-1β/IL-1F2).
(§2) On day 21 post-adjuvant, the animals were subjected to autopsy, and plasma was prepared to measure IL-1β and TIN-α concentrations in plasma. In all the groups for which measurements were made, the concentration of TNF-α was below the detection limit (8 pg/mL).

[2] = tested on: adjuvant-induced arthritis; assay: Adjuvant arthritis rat model; format: in vivo, Lewis/CrlCrlj rats; design: key to Redness scores (left hind-limb) / Redness scores (right hind-limb): 0 = no redness, 4 = severe redness; key to Scores of swelling in the instep (left hind-limb) / Scores of swelling in the instep (right hind-limb): 0 = no swelling, 4 = severe swelling; key to Scores of swelling in knuckle joints (left hind-limb) / Scores of swelling in knuckle joints (right hind-limb): 0 = no swelling, 4 = swelling of all the digits; conditions: 10 mg/kg oral from day 10
Source text: Male Lewis/CrlCrlj (SPF) rats were used to investigate the arthritis suppressing effect of a peptide of the present invention on adjuvant-induced arthritis. Forty-five rats were purchased from Charles River Laboratories Japan, Inc., and fed normal chow and allowed to acclimate for 7 days before used (the range of body weights was from 193.3 to 218.3 g at the beginning of use).
In an agate motor, dead tubercle bacilli (Mycobacterium butyricum; Lot No. 0260570, Difco) were pulverized. Then, liquid paraffin was added in small amounts to spread the pulverized bacilli well, so as to allow them to be emulsified at 1.0 mg/mL. The resultant emulsion was used after verification to ensure that the pulverized bacilli had been allowed to be finely emulsified, using an NM MICRONIZER (Nippon Seiki Co., Ltd.).
A right hind-limb of the respective rats was exposed, and 100 μL of the emulsion was intradermally injected once into a footpad of the right hind-limb using a 25G-needle attached syringe, to cause arthritis (day 0).
Each of the groups was comprised of 5 animals.
Arthritis was evaluated only for the hind-limbs, based on the criteria described below:
Score 0: no swelling Score 1: swelling of not more than two digits Score 2: swelling of three digits Score 3: swelling of four digits Score 4: swelling of all the digits
Score 0: no swelling Score 1: mild swelling Score 2: modest swelling Score 3: rather severe swelling Score 4: severe swelling
Score 0: no redness Score 1: mild redness Score 2: modest redness Score 3: rather severe redness Score 4: severe redness (iii) Measurement of Foot Volumes of Left And Right Hind-Limbs
Measurement was performed using a plethysmometer (UNICOM TK105). The increasing rate foot volume (percentage of paw swelling, paw swelling %) was calculated by the following formula:
Percent paw swelling (%)=[(Vt−Vo)/Vo]×100
In addition, in these examinations, the percent change of edema relative to day 10 post-adjuvant was calculated, in order to assess the effect of treatment with the test substances.
Data are expressed by mean±standard error. Since the uniformity of variance was not verified in testing between the negative and the positive control groups, testing for significant difference was performed by Aspin-Welch t-test. Since the uniformity of variance was not verified in testing for significant differences of the respective test-substance administered groups relative to the positive control group, assessment was performed by Dunnett's multiple comparison test after Kruskal-Wallis testing, using non-parametric procedures. Differences were considered to be statistically significant at p values of less than 0.05.

[3] = tested on: IL-1β in plasma; assay: IL-1β in plasma of adjuvant arthritis rats (ELISA); format: in vivo, rat; conditions: day 21 post-adjuvant; 10 mg/kg oral from day 10
Description: as §1, §2

[4] = Evaluation of solubility of peptides in water (PBS or physiological saline); format: physicochemical; conditions: solvent PBS or physiological saline
Description: Water solubility was evaluated for peptides in which various kinds of hydrophilic amino acid were substituted for the 4th and 5th amino acids which were verified in (1) to be allowed to be mutated. The peptides listed in Table 2 were synthesized by GL Biochem (Shanghai). Among the peptides listed in Table 2, peptides SP1 to SP7 are peptides in which various kinds of hydrophilic amino acid were substituted for the 4th and 5th amino acids.
In Table 3, the circle symbol is assigned to a peptide which was dissolved in a solvent (PBS or physiological saline) at a concentration of 10 mg/ml or higher, and the cross symbol is assigned to a peptide which was not dissolved at a concentration of 1 mg/ml. […] In the subsequent experiments, the peptides in which the 4th and 5th amino acids were substituted by hydrophilic amino acids were used.

Molecule: Cc1oncc1C(=O)Nc1ccc(C(F)(F)F)cc1 [Reflumide]
Concentrations of TNF-α in plasma [1]: N.D (N.D.: below detection limit)
Percent increase in foot volume relative to pre-adjuvant (left hind-limb) ([2]; Day 0 post-adjuvant): 0.00 ± 0.0%
Percent increase in foot volume relative to pre-adjuvant (right hind-limb) ([2]; Day 0 post-adjuvant): 0.00 ± 0.0%
Redness scores (left hind-limb) ([2]; Day 0 post-adjuvant): 0.0 ± 0.0
Redness scores (right hind-limb) ([2]; Day 0 post-adjuvant): 0.0 ± 0.0
Scores of swelling in knuckle joints (left hind-limb) ([2]; Day 0 post-adjuvant): 0.0 ± 0.0
Scores of swelling in knuckle joints (right hind-limb) ([2]; Day 0 post-adjuvant): 0.0 ± 0.0
Scores of swelling in the instep (left hind-limb) ([2]; Day 0 post-adjuvant): 0.0 ± 0.0
Scores of swelling in the instep (right hind-limb) ([2]; Day 0 post-adjuvant): 0.0 ± 0.0
Total scores (left hind-limb) ([2]; Day 0 post-adjuvant): 0.0 ± 0.0
Total scores (right hind-limb) ([2]; Day 0 post-adjuvant): 0.0 ± 0.0
Percent increase in foot volume relative to pre-adjuvant (left hind-limb) ([2]; Day 3 post-adjuvant): 13.28 ± 0.4%
Percent increase in foot volume relative to pre-adjuvant (right hind-limb) ([2]; Day 3 post-adjuvant): 13.33 ± 0.4%
Redness scores (left hind-limb) ([2]; Day 3 post-adjuvant): 0.0 ± 0.0
Redness scores (right hind-limb) ([2]; Day 3 post-adjuvant): 0.0 ± 0.0
Scores of swelling in knuckle joints (left hind-limb) ([2]; Day 3 post-adjuvant): 0.0 ± 0.0
Scores of swelling in knuckle joints (right hind-limb) ([2]; Day 3 post-adjuvant): 0.0 ± 0.0
Scores of swelling in the instep (left hind-limb) ([2]; Day 3 post-adjuvant): 0.0 ± 0.0
Scores of swelling in the instep (right hind-limb) ([2]; Day 3 post-adjuvant): 0.0 ± 0.0
Total scores (left hind-limb) ([2]; Day 3 post-adjuvant): 0.0 ± 0.0
Total scores (right hind-limb) ([2]; Day 3 post-adjuvant): 0.0 ± 0.0
Percent increase in foot volume relative to pre-adjuvant (left hind-limb) ([2]; Day 7 post-adjuvant): 18.56 ± 3.3%
Percent increase in foot volume relative to pre-adjuvant (right hind-limb) ([2]; Day 7 post-adjuvant): 26.75 ± 1.4%
Redness scores (left hind-limb) ([2]; Day 7 post-adjuvant): 0.4 ± 0.2
Redness scores (right hind-limb) ([2]; Day 7 post-adjuvant): 0.6 ± 0.2
Scores of swelling in knuckle joints (left hind-limb) ([2]; Day 7 post-adjuvant): 0.4 ± 0.2
Scores of swelling in knuckle joints (right hind-limb) ([2]; Day 7 post-adjuvant): 0.2 ± 0.2
Scores of swelling in the instep (left hind-limb) ([2]; Day 7 post-adjuvant): 0.4 ± 0.2
Scores of swelling in the instep (right hind-limb) ([2]; Day 7 post-adjuvant): 1.0 ± 0.0
Total scores (left hind-limb) ([2]; Day 7 post-adjuvant): 1.2 ± 1.6
Total scores (right hind-limb) ([2]; Day 7 post-adjuvant): 1.8 ± 0.5
Percent increase in foot volume relative to pre-adjuvant (left hind-limb) ([2]; Day 10 post-adjuvant): 22.94 ± 3.6%
Percent increase in foot volume relative to pre-adjuvant (right hind-limb) ([2]; Day 10 post-adjuvant): 49.75 ± 15.8%
Redness scores (left hind-limb) ([2]; Day 10 post-adjuvant): 0.8 ± 0.4
Redness scores (right hind-limb) ([2]; Day 10 post-adjuvant): 1.2 ± 0.2
Scores of swelling in knuckle joints (left hind-limb) ([2]; Day 10 post-adjuvant): 1.4 ± 0.4
Scores of swelling in knuckle joints (right hind-limb) ([2]; Day 10 post-adjuvant): 1.6 ± 0.6
Scores of swelling in the instep (left hind-limb) ([2]; Day 10 post-adjuvant): 0.6 ± 0.4
Scores of swelling in the instep (right hind-limb) ([2]; Day 10 post-adjuvant): 1.4 ± 0.4
Total scores (left hind-limb) ([2]; Day 10 post-adjuvant): 2.8 ± 1.4
Total scores (right hind-limb) ([2]; Day 10 post-adjuvant): 4.2 ± 1.5
Percent increase in foot volume relative to day 10 post-adjuvant (left hind-limb) ([2]; Day 14 post-adjuvant): −2.2 ± 1.6%
Percent increase in foot volume relative to day 10 post-adjuvant (right hind-limb) ([2]; Day 14 post-adjuvant): −1.3 ± 2.9^ %
Percent increase in foot volume relative to pre-adjuvant (left hind-limb) ([2]; Day 14 post-adjuvant): 20.13 ± 3.2%
Percent increase in foot volume relative to pre-adjuvant (right hind-limb) ([2]; Day 14 post-adjuvant): 46.22 ± 10.7%
Redness scores (left hind-limb) ([2]; Day 14 post-adjuvant): 0.4 ± 0.2
Redness scores (right hind-limb) ([2]; Day 14 post-adjuvant): 1.2 ± 0.2
Scores of swelling in knuckle joints (left hind-limb) ([2]; Day 14 post-adjuvant): 0.6 ± 0.4
Scores of swelling in knuckle joints (right hind-limb) ([2]; Day 14 post-adjuvant): 1.4 ± 0.4
Scores of swelling in the instep (left hind-limb) ([2]; Day 14 post-adjuvant): 0.2 ± 0.2
Scores of swelling in the instep (right hind-limb) ([2]; Day 14 post-adjuvant): 1.2 ± 0.2
Total scores (left hind-limb) ([2]; Day 14 post-adjuvant): 1.2 ± 1.0
Total scores (right hind-limb) ([2]; Day 14 post-adjuvant): 3.8 ± 1.0
Percent increase in foot volume relative to day 10 post-adjuvant (left hind-limb) ([2]; Day 17 post-adjuvant): 1.2 ± 6.3%
Percent increase in foot volume relative to day 10 post-adjuvant (right hind-limb) ([2]; Day 17 post-adjuvant): −3.4 ± 2.8%
Percent increase in foot volume relative to pre-adjuvant (left hind-limb) ([2]; Day 17 post-adjuvant): 24.18 ± 7.7%
Percent increase in foot volume relative to pre-adjuvant (right hind-limb) ([2]; Day 17 post-adjuvant): 43.17 ± 11.2%
Redness scores (left hind-limb) ([2]; Day 17 post-adjuvant): 0.6 ± 0.6
Redness scores (right hind-limb) ([2]; Day 17 post-adjuvant): 0.8 ± 0.2
Scores of swelling in knuckle joints (left hind-limb) ([2]; Day 17 post-adjuvant): 0.6 ± 0.4
Scores of swelling in knuckle joints (right hind-limb) ([2]; Day 17 post-adjuvant): 0.0 ± 0.0
Scores of swelling in the instep (left hind-limb) ([2]; Day 17 post-adjuvant): 0.2 ± 0.2
Scores of swelling in the instep (right hind-limb) ([2]; Day 17 post-adjuvant): 1.2 ± 0.2
Total scores (left hind-limb) ([2]; Day 17 post-adjuvant): 1.4 ± 1.5
Total scores (right hind-limb) ([2]; Day 17 post-adjuvant): 2.0 ± 0.0
Percent increase in foot volume relative to day 10 post-adjuvant (left hind-limb) ([2]; Day 21 post-adjuvant): −1.4 ± 6.1%
Percent increase in foot volume relative to day 10 post-adjuvant (right hind-limb) ([2]; Day 21 post-adjuvant): −5.9 ± 4.1%
Percent increase in foot volume relative to pre-adjuvant (left hind-limb) ([2]; Day 21 post-adjuvant): 20.93 ± 7.3%
Percent increase in foot volume relative to pre-adjuvant (right hind-limb) ([2]; Day 21 post-adjuvant): 38.93 ± 9.5%
Redness scores (left hind-limb) ([2]; Day 21 post-adjuvant): 0.6 ± 0.6
Redness scores (right hind-limb) ([2]; Day 21 post-adjuvant): 1.4 ± 0.4
Scores of swelling in knuckle joints (left hind-limb) ([2]; Day 21 post-adjuvant): 0.4 ± 0.4
Scores of swelling in knuckle joints (right hind-limb) ([2]; Day 21 post-adjuvant): 0.6 ± 0.6
Scores of swelling in the instep (left hind-limb) ([2]; Day 21 post-adjuvant): 0.4 ± 0.4
Scores of swelling in the instep (right hind-limb) ([2]; Day 21 post-adjuvant): 1.4 ± 0.4
Total scores (left hind-limb) ([2]; Day 21 post-adjuvant): 1.4 ± 1.8
Total scores (right hind-limb) ([2]; Day 21 post-adjuvant): 3.4 ± 1.8
Concentrations of IL-1β in plasma [3]: 13.0 ± 2.5 pg/mL

Molecule: PGLDKF [SP1, PGLDKF]
solubility [4]: ≥ 10000 µg/mL

Molecule: PGLDRF [SP2, PGLDRF]
solubility [4]: ≥ 10000 µg/mL

Molecule: PGLYYF [R1, PGLYYF]
solubility [4]: < 1000 µg/mL

Second part, the molecule after the results:

solubility [4]: ≥ 10000 µg/mL
Molecule: PGLDHF [SP3, PGLDHF]

solubility [4]: ≥ 10000 µg/mL
Molecule: PGLEHF [SP6, PGLEHF]

solubility [4]: ≥ 10000 µg/mL
Molecule: PGLEKF [SP4, PGLEKF]

solubility [4]: ≥ 10000 µg/mL
Molecule: PGLERF [SP5, PGLERF]

solubility [4]: ≥ 10000 µg/mL
Molecule: PGLSSF [SP7, PGLSSF]
